Experimental data: ChEMBL document CHEMBL5143508, “Design, synthesis and biological evaluation of novel o-aminobenzamide derivatives as potential anti-gastric cancer agents in vitro and in vivo” (Eur J Med Chem, 2022)
Activity calls are given as the source filed them. No cut-off for these calls is given here.

Experiments:
HGC-27 [1] = experiment: Induction of apoptosis in human HGC-27 cells assessed as upregulation in cleaved caspase-9 expression at 0.5 to 8 uM incubated for 48 hrs by Western blot analysis; format: functional, cell-based; conditions: dose 0.5-8 µM
HGC-27 [2] = experiment: Induction of apoptosis in human HGC-27 cells assessed as late apoptotic cells at 2 uM incubated for 48 hrs by annexin V FITC/propidium iodide staining based flow cytometry (reference value: 5.14 %); format: functional
HGC-27 [3] = experiment: Induction of apoptosis in human HGC-27 cells assessed as early apoptotic cells at 8 uM incubated for 48 hrs by annexin V FITC/propidium iodide staining based flow cytometry (reference value: 0.66 %); format: functional
MGC-803 [4] = experiment: Induction of cell cycle arrest in human MGC-803 cells assessed as reduction in accumulation of cells at G0/G1 phase at 2.5 to 10 uM incubated for 24 hrs by PI staining based flow cytometry analysis; format: functional; conditions: dose 2.5-10 µM
HGC-27 [5] = experiment: Induction of apoptosis in human HGC-27 cells assessed as late apoptotic cells at 0.5 uM incubated for 48 hrs by annexin V FITC/propidium iodide staining based flow cytometry (reference value: 5.14 %); format: functional
HGC-27 [6] = experiment: Induction of apoptosis in human HGC-27 cells assessed as upregulation in cleaved PARP expression at 0.5 to 8 uM incubated for 48 hrs by Western blot analysis; format: functional, cell-based; conditions: dose 0.5-8 µM
HGC-27 [7] = experiment: Induction of apoptosis in human HGC-27 cells assessed as late apoptotic cells at 8 uM incubated for 48 hrs by annexin V FITC/propidium iodide staining based flow cytometry (reference value: 5.14 %); format: functional
HGC-27 [8] = experiment: Induction of apoptosis in human HGC-27 cells assessed as viable cells at 2 uM incubated for 48 hrs by annexin V FITC/propidium iodide staining based flow cytometry (reference value: 93.0 %); format: functional; conditions: read-out: Activity
MGC-803 [9] = experiment: Induction of cell cycle arrest in human MGC-803 cells assessed as reduction in accumulation of cells at S phase at 2.5 to 10 uM incubated for 24 hrs by PI staining based flow cytometry analysis; format: functional; conditions: dose 2.5-10 µM
MGC-803 [10] = experiment: Induction of apoptosis in human MGC-803 cells assessed as late apoptotic cells at 2.5 uM incubated for 48 hrs by annexin V FITC/propidium iodide staining based flow cytometry (reference value: 4.07 %); format: functional
MGC-803 [11] = experiment: Induction of apoptosis in human MGC-803 cells assessed as early apoptotic cells at 2.5 uM incubated for 48 hrs by annexin V FITC/propidium iodide staining based flow cytometry (reference value: 0.42 %); format: functional
HGC-27 [12] = experiment: Induction of apoptosis in human HGC-27 cells assessed as necrotic cells at 2 uM incubated for 48 hrs by annexin V FITC/propidium iodide staining based flow cytometry (reference value: 1.24 %); format: functional
HGC-27 [13] = experiment: Induction of apoptosis in human HGC-27 cells assessed as late apoptotic cells at 1.6 uM incubated for 48 hrs by annexin V FITC/propidium iodide staining based flow cytometry (reference value: 5.14 %); format: functional
[14] = Toxicity in BALB/c mouse xenografted with human HGC-27 cells assessed as mean platelet volume at 150 mg/kg, po bid for 19 days; format: organism-based; conditions: in vivo, 456 h, time 19 day
[15] = Acute toxicity in Kunming mouse assessed as effect on liver pathology at 1000 mg/kg, po measured after 14 days; format: organism-based; conditions: in vivo, 336 h, time 14 day
HGC-27 [16] = experiment: Induction of apoptosis in human HGC-27 cells assessed as necrotic cells at 0.1 uM incubated for 48 hrs by annexin V FITC/propidium iodide staining based flow cytometry (reference value: 1.24 %); format: functional
[17] = Toxicity in BALB/c mouse xenografted with human HGC-27 cells assessed as hematocrit level at 75 mg/kg, po bid for 19 days; format: organism-based; conditions: in vivo, 456 h, time 19 day
HGC-27 [18] = experiment: Antitumor activity against human HGC-27 cells xenografted in BALB/c mouse assessed as tumor growth inhibition at 150 mg/kg, po bid administered for 19 days; format: functional; conditions: HGC-27, 456 h, time 19 day, read-out: TGI
[19] = Acute toxicity in Kunming mouse assessed as effect on spleen pathology at 1000 mg/kg, po measured after 14 days; format: organism-based; conditions: in vivo, 336 h, time 14 day
MGC-803 [20] = experiment: Induction of cell cycle arrest in human MGC-803 cells assessed as reduction in accumulation of cells at S phase at 5 to 20 uM incubated for 24 hrs by PI staining based flow cytometry analysis; format: functional; conditions: dose 5-20 µM
[21] = Acute toxicity in Kunming mouse assessed as mouse survival at 1000 mg/kg, po measured after 14 days; format: organism-based; conditions: in vivo, 336 h, time 14 day
[22] = Toxicity in BALB/c mouse xenografted with human HGC-27 cells assessed as RBC level at 75 mg/kg, po bid for 19 days; format: organism-based, Erythrocyte; conditions: in vivo, 456 h, time 19 day
MGC-803 [23] = experiment: Induction of cell cycle arrest in human MGC-803 cells assessed as reduction in accumulation of cells at G2/M phase at 5 to 20 uM incubated for 24 hrs by PI staining based flow cytometry analysis; format: functional; conditions: dose 5-20 µM
HGC-27 [24] = experiment: Induction of apoptosis in human HGC-27 cells assessed as upregulation in cleaved caspase-3 expression at 0.1 to 1.6 uM incubated for 48 hrs by Western blot analysis; format: functional, cell-based; conditions: dose 0.1-1.6 µM
SGC-7901 = experiment: cells; format: functional, cell-based; conditions: Homo sapiens, SGC-7901, 72 h
Description: Cytotoxicity against human SGC-7901 cells assessed as inhibition of cell growth incubated for 72 hrs by MTT assay

HGC-27 [25] = experiment: Induction of apoptosis in human HGC-27 cells assessed as necrotic cells at 1.6 uM incubated for 48 hrs by annexin V FITC/propidium iodide staining based flow cytometry (reference value: 1.24 %); format: functional
HGC-27 [26] = experiment: In vivo induction of cell cycle arrest in human HGC-27 cells xenografted in BALB/c mouse assessed as decrease in CDK2 expression at 75 to 150 mg/kg, po bid administered for 19 days and measured by immunohistochemical analysis; format: functional, organism-based; conditions: dose 75-150 mg/kg, time 19.0 day
HGC-27 [27] = experiment: Induction of apoptosis in human HGC-27 cells assessed as early apoptotic cells at 1.6 uM incubated for 48 hrs by annexin V FITC/propidium iodide staining based flow cytometry (reference value: 0.66 %); format: functional
HGC-27 [28] = experiment: cells; format: functional, cell-based; conditions: Homo sapiens, HGC-27, 72 h
Description: Cytotoxicity against human HGC-27 cells assessed as inhibition of cell growth incubated for 72 hrs by MTT assay

[29] = Acute toxicity in Kunming mouse assessed as effect on heart pathology at 1000 mg/kg, po measured after 14 days; format: organism-based; conditions: in vivo, 336 h, time 14 day
HGC-27 [30] = experiment: Induction of cell cycle arrest in human HGC-27 cells assessed as reduction in accumulation of cells at G2/M phase at 0.1 to 1.6 uM incubated for 24 hrs by PI staining based flow cytometry analysis; format: functional; conditions: dose 0.1-1.6 µM
HGC-27 [31] = experiment: Induction of apoptosis in human HGC-27 cells assessed as viable cells at 0.4 uM incubated for 48 hrs by annexin V FITC/propidium iodide staining based flow cytometry (reference value: 93.0 %); format: functional; conditions: read-out: Activity
HGC-27 [32] = experiment: In vivo induction of cell cycle arrest in human HGC-27 cells xenografted in BALB/c mouse assessed as increase in p27 expression at 75 to 150 mg/kg, po bid administered for 19 days and measured by immunohistochemical analysis; format: functional, organism-based; conditions: dose 75-150 mg/kg, time 19.0 day
HGC-27 [33] = experiment: Induction of cell cycle arrest in human HGC-27 cells assessed as reduction in accumulation of cells at S phase at 0.1 to 1.6 uM incubated for 24 hrs by PI staining based flow cytometry analysis; format: functional; conditions: dose 0.1-1.6 µM

**Q.** What does the source list for O=C(NCc1ccc(NC(=O)c2ccccc2N2CCCC2)cc1)OCc1cccnc1?
**A.** Activity (HGC-27 [1]): Active; Activity (HGC-27 [2]): 55.9%; Activity (HGC-27 [3]): 3.68%; Activity (MGC-803 [4]): Active; Activity (HGC-27 [5]): 17.4%; Activity (HGC-27 [6]): Active; Activity (HGC-27 [7]): 49.1%; viability at 2 µM (HGC-27 [8]): 30.4%; Activity (MGC-803 [9]): Active; Activity (MGC-803 [10]): 14.6%; Activity (MGC-803 [11]): 0.85%; Activity (HGC-27 [12]): 12.1%

**Q.** For O=C(NCc1ccc(NC(=O)c2cc(F)ccc2N2CCCC2)cc1)OCc1cccnc1, which Activity (HGC-27 [13]) is on record?
**A.** 69.4%

**Q.** And the Activity [14]?
**A.** 6.28 fL

**Q.** And the Activity [15]?
**A.** Non-Toxic

**Q.** What about the Activity (HGC-27 [16]) of the same compound?
**A.** 0.86%

**Q.** What about the Activity [17] of the same compound?
**A.** 58.3%

**Q.** And the inhibition in vivo at 150 mg/kg (HGC-27 [18])?
**A.** 68.9%

**Q.** What about the Activity [19] of the same compound?
**A.** Non-Toxic

**Q.** And the Activity (MGC-803 [20])?
**A.** Active

**Q.** And the Activity [21]?
**A.** Non-Toxic

**Q.** What about the Activity [22] of the same compound?
**A.** 11.74 10^12/L

**Q.** What about the Activity (MGC-803 [23]) of the same compound?
**A.** Active

**Q.** And the Activity (HGC-27 [24])?
**A.** Active

**Q.** What about the IC50 (SGC-7901) of the same compound?
**A.** 44.8 µM

**Q.** And the Activity (HGC-27 [25])?
**A.** 16.9%

**Q.** And the Activity (HGC-27 [26])?
**A.** Active

**Q.** And the Activity (HGC-27 [27])?
**A.** 0.31%

**Q.** And the IC50 (HGC-27 [28])?
**A.** 280 nM

**Q.** What about the Activity [29] of the same compound?
**A.** Non-Toxic

**Q.** And the Activity (HGC-27 [30])?
**A.** Active

**Q.** What about the viability at 0.4 µM (HGC-27 [31]) of the same compound?
**A.** 70.7%

**Q.** What about the Activity (HGC-27 [32]) of the same compound?
**A.** Active

**Q.** And the Activity (HGC-27 [33])?
**A.** Active
